Key:
CA1 individual neurons = test: Whole-cell LTP (pairing protocol) in CA1 neurons of organotypic slices with APPswe/lnd-EGFP expression; type: cell-based, rat; details: VO-OHpic 26-48 hours
Method: The different versions of APP (APPwt, APPswe/lnd APPMV) and EGFP were co-expressed using an internal ribosomal entry site (IRES) construct. The EGFP-tagged versions of PTEN have been described (Jurado, et al. (2010) EMBO J. 29:2827-2840). All constructs were prepared in pSinRep5 for expression using Sindbis virus. Recombinant proteins were expressed in hippocampal CA1 pyramidal neurons from organotypic slice cultures. Organotypic hippocampal slices were prepared from postnatal day 5-7 rats and cultured during 6-8 days.
The external solution (aCSF) contained 119 mM NaCl, 2.5 mM KCl, 1 mM NaH2PO4, 11 mM glucose, 26 mM NaHCO3, 4 mM MgCl2, 4 mM CaCl2, 100 μM picrotoxin and 2 μM 2-chloroadenosine, pH 7.4, and was gassed with 95% O2 and 5% CO2. Patch recording pipettes (4-7 MO) were filled with internal solution containing 115 mM CsMeSO3, 20 mM CsCl, 10 mM HEPES, 2.5 mM MgCl2, 4 mM Na2-ATP, 0.4 mM Na-GTP, 10 mM sodium phosphocreatine and 0.6 mM EGTA, pH 7.25. Bipolar stimulating electrodes were placed over Schaffer collateral fibers between 250 and 300 μm from the CA1 recorded cells, and synaptic responses were evoked with single voltage pulses (200 μs, up to 30 V). Responses were collected at −60 mV and +40 mV and averaged over 50-100 trials. LTP was induced using a pairing protocol by stimulating Schaffer collateral fibers at 3 Hz for 1.5 minutes while depolarizing the postsynaptic cell at 0 mV. All electrophysiological data were collected with pCLAMP software (Molecular Devices). Immunohistochemistry For the immunostaining protocol, hippocampal slice cultures were fixed with 4% paraformaldehyde for 24 hours washed in PBS and blocked with 5% horse serum for 2 hours. Sections were then incubated for 48 hours at 4° C. with primary antibody. […]
However, this form of depression may in principle be due to Aβ exposure, to intracellular fragments derived from APP processing, or a combination thereof. To test the role of PTEN specifically in the effects of neuron-secreted Aβ, synaptic dysfunctions were monitored in untransfected cells neighboring APPswe/lnd-expressing neurons. […]

PTEN = test: phospho-Akt and phospho-Tyr levels in acute hippocampal slices; type: cell-based, mice

O=C(O)c1ncccc1O.O=C(O)c1ncccc1O.[O]=[V][O-] [VO-OHpic]
LTP potentiation, APPswe/lnd-EGFP infected cells (CA1 individual neurons; P=0.01): 220%
LTP potentiation, uninfected cells exposed to Aβ (CA1 individual neurons; uninfected neurons adjacent to infected cells, P=0.0006): 339%
magnitude of LTP in control slices (CA1 individual neurons; slices not exposed to APPswe/lnd-EGFP virus): did not affect the magnitude of LTP
phospho-Akt (PIP3 downstream effector) (PTEN): upregulation
phospho-Tyr levels (specificity versus Tyr phosphatases) (PTEN): lack of effect
